Results on 5 compounds are retold here after paper PMC7892445 (Frontiers in Molecular Neuroscience, 2021).

Structures are written as SMILES. Where two headings read alike, the source gives them in different places.

What is called EC50 is the concentration giving half of the maximal effect. As a reminder, the IC50 is the midpoint of a concentration-inhibition curve.

The target in assay [1] is Chicken α9 homomeric nAChR (Gallus gallus, UniProt Q9PTS8). Description: Two-electrode voltage clamp, recombinant homomeric receptor in X. laevis oocytes. The format is cell-based. Conditions: for EC50: mean ± SEM. How it is done: (§1) For expression studies, rat and chicken α9 and α10 nAChR subunits subcloned into a modified pGEMHE vector were used. Capped cRNAs were in vitro transcribed from linearized plasmid DNA templates using RiboMAX™ Large Scale RNA Production System (Promega, Madison, WI, USA). The maintenance of X. laevis and the preparation and cRNA injection of stage V and VI oocytes have been described in detail elsewhere (Verbitsky et al., [2000]). Typically, oocytes were injected with 50 nl of RNase-free water containing 0.01–1.0 ng of cRNA (at a 1:1 molar ratio for heteromeric receptors) and maintained in Barth’s solution [in mM: NaCl 88, Ca(NO3)2 0.33, CaCl2 0.41, KCl 1, MgSO4 0.82, NaHCO3 2.4, HEPES 10] at 18°C. Electrophysiological recordings were performed 2–6 days after cRNA injection under a two-electrode voltage clamp with an Oocyte Clamp OC-725B or C amplifier (Warner Instruments Corporation, Hamden, CT, USA). Recordings were filtered at a corner frequency of 10 Hz using a 900 BT Tunable Active Filter (Frequency Devices Inc., Ottawa, IL, USA). Data acquisition was performed using a Patch Panel PP-50 LAB/1 interphase (Warner Instruments Corp., Hamden, CT, USA) at a rate of 10 points per second. Both voltage and current electrodes were filled with 3 M KCl and had resistances of ~1 MΩ. Data were analyzed using Clampfit from the pClamp 6.1 software. During electrophysiological recordings, oocytes were continuously superfused (~15 ml/min) with normal frog saline composed of: 115 mM NaCl, 2.5 mM KCl, 1.8 mM CaCl2, and 10 mM HEPES buffer, pH 7.2. Drugs were added to the perfusion solution for the application. The membrane potential was clamped to −70 mV. To minimize activation of the endogenous Ca^2+ sensitive chloride current (Elgoyhen et al., [2001]), all experiments were performed in oocytes incubated with the Ca^2+ chelator 1,2-bis (2-aminophenoxy) ethane-N,N,N’,N’-tetraacetic acid-acetoxymethyl ester (BAPTA-AM, 100 μM) for 3 h before electrophysiological recordings. […] The mean and SEM of peak current responses are presented. Agonist concentration-response curves were iteratively fitted, using Prism 6 software (GraphPad Software Inc., La Jolla, CA, USA), with the equation: I/Imax = A^nh/(A^nH + EC50^nH), where I is the peak inward current evoked by agonist at concentration A; Imax is the current evoked by the concentration of agonist eliciting a maximal response; EC50 is the concentration of agonist inducing half-maximal current response, and nH is the Hill coefficient. An equation of the same form was used to analyze the concentration dependence of antagonist induced blockage.
Sequence of Chicken α9 homomeric nAChR (Q9PTS8 28-484): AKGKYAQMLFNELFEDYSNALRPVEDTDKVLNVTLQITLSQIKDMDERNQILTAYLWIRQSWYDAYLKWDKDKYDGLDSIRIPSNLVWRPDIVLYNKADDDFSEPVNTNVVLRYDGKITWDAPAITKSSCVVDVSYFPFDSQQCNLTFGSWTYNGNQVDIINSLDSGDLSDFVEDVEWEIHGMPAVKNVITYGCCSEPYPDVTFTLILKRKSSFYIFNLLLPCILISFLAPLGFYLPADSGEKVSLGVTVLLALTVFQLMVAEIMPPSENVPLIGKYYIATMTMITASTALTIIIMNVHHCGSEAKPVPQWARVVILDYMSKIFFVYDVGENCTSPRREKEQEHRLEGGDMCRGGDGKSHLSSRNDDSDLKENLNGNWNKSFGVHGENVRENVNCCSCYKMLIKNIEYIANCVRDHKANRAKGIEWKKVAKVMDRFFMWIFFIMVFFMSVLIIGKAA
A general note: In two-electrode clamp one electrode senses voltage and the other passes current.

Assay [2] deals with Chicken α10 homomeric nAChR (Gallus gallus, UniProt Q9I8C7). The assay is described as above. The format is cell-based. Particulars: for EC50: mean ± SEM. As to the method: as §1
Sequence of Chicken α10 homomeric nAChR (Q9I8C7 27-452): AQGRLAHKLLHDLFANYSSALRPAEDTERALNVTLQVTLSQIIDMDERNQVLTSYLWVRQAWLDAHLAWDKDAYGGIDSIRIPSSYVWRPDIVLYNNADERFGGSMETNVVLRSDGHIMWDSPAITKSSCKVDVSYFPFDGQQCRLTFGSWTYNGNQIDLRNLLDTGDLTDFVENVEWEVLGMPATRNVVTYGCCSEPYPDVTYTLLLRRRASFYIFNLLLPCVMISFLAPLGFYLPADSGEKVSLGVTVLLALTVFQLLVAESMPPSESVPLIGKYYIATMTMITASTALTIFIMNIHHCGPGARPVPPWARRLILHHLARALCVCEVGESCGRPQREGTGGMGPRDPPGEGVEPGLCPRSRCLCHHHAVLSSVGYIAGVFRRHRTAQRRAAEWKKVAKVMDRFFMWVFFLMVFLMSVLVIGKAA
The next assay has as its target T1, Rat α9 homomeric nAChR (Rattus norvegicus, UniProt P43144).
T1 construct: expressed in transfected cells; host or cells: Xenopus laevis oocytes (cRNA injection)
The assay is described as above. The format is cell-based. How it is done: as §1

In assay [3] the target is T2, rat α9α10x chimeric receptor (Rattus norvegicus, UniProt P43144+Q9JLB5, A264D/A292P/A308T/A312F/A328P/E329N/F253L/F325Y/H335A/I246L/I275V/I289S/I304M/I310V/I323L/L250F/L309M/M279L/M319L/N295S/R331H/S258A/S293A/V320I/Y260H).
T2 construct: expressed in transfected cells; host or cells: Xenopus laevis oocytes (cRNA injection)
T2 sequence (P43144 26-479, stated change not applied): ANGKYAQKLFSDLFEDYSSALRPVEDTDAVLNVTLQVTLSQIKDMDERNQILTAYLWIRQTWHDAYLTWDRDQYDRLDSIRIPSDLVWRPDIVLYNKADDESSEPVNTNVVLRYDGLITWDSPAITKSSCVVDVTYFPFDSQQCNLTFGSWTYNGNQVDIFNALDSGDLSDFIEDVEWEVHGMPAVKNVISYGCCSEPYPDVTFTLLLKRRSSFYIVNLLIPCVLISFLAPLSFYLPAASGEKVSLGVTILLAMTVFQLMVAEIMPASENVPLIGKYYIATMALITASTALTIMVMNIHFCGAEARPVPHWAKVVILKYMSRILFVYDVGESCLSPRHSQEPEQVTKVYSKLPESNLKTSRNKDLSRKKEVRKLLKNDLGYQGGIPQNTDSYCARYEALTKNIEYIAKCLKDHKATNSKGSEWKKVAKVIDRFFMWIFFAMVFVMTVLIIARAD
T2 sequence (P43144+Q9JLB5 fused with the stated changes): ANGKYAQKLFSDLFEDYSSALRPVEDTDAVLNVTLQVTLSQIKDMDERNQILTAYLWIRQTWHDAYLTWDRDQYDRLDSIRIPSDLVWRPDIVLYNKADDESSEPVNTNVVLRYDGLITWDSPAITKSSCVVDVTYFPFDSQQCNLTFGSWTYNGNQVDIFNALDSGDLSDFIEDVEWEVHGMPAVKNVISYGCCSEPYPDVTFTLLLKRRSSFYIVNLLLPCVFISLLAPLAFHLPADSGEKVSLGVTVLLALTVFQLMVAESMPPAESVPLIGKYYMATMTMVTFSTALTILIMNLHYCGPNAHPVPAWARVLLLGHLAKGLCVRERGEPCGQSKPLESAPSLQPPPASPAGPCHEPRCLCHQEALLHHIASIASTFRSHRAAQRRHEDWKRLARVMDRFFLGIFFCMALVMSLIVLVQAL
Kind of assay: Two-electrode voltage clamp, chimeric receptor in X. laevis oocytes. The format is cell-based. As to the method: as §1
The α10W55T mutant subunit was produced as previously described (Boffi et al., [2017]) using Quick change XL II kit (Stratagene, La Jolla, CA, USA). […]

In assay [4] the target is T3, Chicken α9α10 nAChR (Gallus gallus, UniProt Q9I8C7+Q9PTS8).
T3 construct: expressed in transfected cells; host or cells: Xenopus laevis oocytes (cRNA injection, 1:1 molar ratio)
T3 sequence (Q9PTS8 28-484): as the sequence (Q9PTS8 28-484) above
T3 sequence (Q9I8C7 27-452): as the sequence (Q9I8C7 27-452) above
Further details: method as in Elgoyhen et al., 2001; Lipovsek et al., 2012. Particulars: previous work, ref Elgoyhen et al., 2001, Lipovsek et al., 2012; cited from earlier work.

In assay [5] the target is rat α9–chicken α10 hybrid receptor (Rα9-Cα10) (UniProt P43144+Q9I8C7). Description: Two-electrode voltage clamp, hybrid receptor in X. laevis oocytes. The format is cell-based. Conditions: mean ± SEM. As to the method:
as §1

The target of assay [6] is T3, Chicken α9α10 nAChR. Description: Two-electrode voltage clamp, recombinant heteromeric receptor in X. laevis oocytes. Particulars: for Emax: read-out: Efficacy (maximal response as % of that elicited by 1 mM ACh), Chicken α9α10. The format is cell-based. As to the method:
as §1

The next assay deals with T4, Rat α9α10 nAChR (Rattus norvegicus, UniProt P43144+Q9JLB5).
T4 construct: expressed in transfected cells; host or cells: Xenopus laevis oocytes (cRNA injection, 1:1 molar ratio)
T4 sequence (P43144 26-479): as the sequence (P43144 26-479, stated change not applied) above
T4 sequence (Q9JLB5 25-447): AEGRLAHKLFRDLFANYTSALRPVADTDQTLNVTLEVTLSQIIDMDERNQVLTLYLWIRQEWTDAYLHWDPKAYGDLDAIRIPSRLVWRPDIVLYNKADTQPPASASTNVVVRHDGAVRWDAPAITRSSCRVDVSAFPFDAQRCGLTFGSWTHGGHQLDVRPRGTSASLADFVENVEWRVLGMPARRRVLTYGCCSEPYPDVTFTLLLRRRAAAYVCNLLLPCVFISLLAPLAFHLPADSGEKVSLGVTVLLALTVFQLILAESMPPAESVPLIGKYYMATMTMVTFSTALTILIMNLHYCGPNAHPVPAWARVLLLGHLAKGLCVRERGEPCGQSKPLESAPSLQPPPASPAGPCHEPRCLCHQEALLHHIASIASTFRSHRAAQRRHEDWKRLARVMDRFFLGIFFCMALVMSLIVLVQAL
The assay is described as above. Conditions: for Efficacy (maximal response as % of that elicited by 1 mM ACh) / EC50: Rat α9α10; for Efficacy (maximal response as % of that elicited by 1 mM ACh) / EC50 / Emax: mean ± SEM; for EC50: −70 mV, BAPTA-AM treated oocytes; for Emax: read-out: Efficacy (maximal response as % of that elicited by 1 mM ACh), Rat α9α10. It is filed as cell-based. As to the method: as §1

Assay [7] addresses rat α9α10W55T receptor (Rα9-Rα10W55T) (Rattus norvegicus, UniProt P43144+Q9JLB5, W81T). Kind of assay: Two-electrode voltage clamp, mutant receptor in X. laevis oocytes. The format is cell-based. Particulars: mean ± SEM. How it is done: For expression studies, rat and chicken α9 and α10 nAChR subunits subcloned into a modified pGEMHE vector were used. Capped cRNAs were in vitro transcribed from linearized plasmid DNA templates using RiboMAX™ Large Scale RNA Production System (Promega, Madison, WI, USA). The maintenance of X. laevis and the preparation and cRNA injection of stage V and VI oocytes have been described in detail elsewhere (Verbitsky et al., [2000]). Typically, oocytes were injected with 50 nl of RNase-free water containing 0.01–1.0 ng of cRNA (at a 1:1 molar ratio for heteromeric receptors) and maintained in Barth’s solution [in mM: NaCl 88, Ca(NO3)2 0.33, CaCl2 0.41, KCl 1, MgSO4 0.82, NaHCO3 2.4, HEPES 10] at 18°C. Electrophysiological recordings were performed 2–6 days after cRNA injection under a two-electrode voltage clamp with an Oocyte Clamp OC-725B or C amplifier (Warner Instruments Corporation, Hamden, CT, USA). Recordings were filtered at a corner frequency of 10 Hz using a 900 BT Tunable Active Filter (Frequency Devices Inc., Ottawa, IL, USA). Data acquisition was performed using a Patch Panel PP-50 LAB/1 interphase (Warner Instruments Corp., Hamden, CT, USA) at a rate of 10 points per second. Both voltage and current electrodes were filled with 3 M KCl and had resistances of ~1 MΩ. Data were analyzed using Clampfit from the pClamp 6.1 software. […]

Assay [8] concerns the target chicken α9–rat α10 hybrid receptor (Cα9-Rα10) (UniProt Q9JLB5+Q9PTS8). Description: Two-electrode voltage clamp, hybrid receptor in X. laevis oocytes. It is filed as cell-based. Particulars: mean ± SEM. How it is done:
as §1

Another assay deals with mouse outer hair cells. Description: tissue or blood. Conditions: read-out: Efficacy (maximum response normalized to maximal peak response to 3 mM ACh). How it is done: (§2) Chicken auditory organ (basilar papilla) was dissected from the temporal bone of embryonic chickens (white Leghorns either sex, 17–20 days in ovo). The tegmentum vasculosum was removed and the tectorial membrane was stripped from the basilar papilla with most of the short hair cells (SHCs) still attached. This “tectorial preparation” was then inverted and secured in the recording chamber by spring clips. SHCs were recorded in a region 25–50% the distance from the apical (lagenar) to the basal tip of the basilar papilla of the chicken. Apical turns of the organ of Corti were excised from BALB/c mice of either sex between postnatal day 11 (P11) and P13 (around the onset of hearing in altricial rodents). At this age, outer hair cells (OHCs) are already innervated by the MOC fibers (Pujol et al., [1998]; Simmons, [2002]). The tectorial membrane was removed and the organ of Corti was positioned under an insect pin affixed to a cover-slip with a drop of Sylgard.
(§3) Basilar papilla and cochlear preparations were placed into a chamber on the stage of an upright microscope (Olympus BX51WI, Center Valley, PA, USA) at room temperature and used within 2 h. Cells were visualized on a monitor via a water immersion objective (60× magnification), differential interference contrast optics, and a CCD camera (Andor iXon 885, Belfast, UK). […]

A further assay deals with chicken short hair cells. Kind of assay: tissue or blood. Particulars: Gallus gallus, read-out: Efficacy (maximum response normalized to maximal peak response to 3 mM ACh). As to the method: as §2, §3
[9] abbreviates: Chicken α9α10, mean ± SEM, read-out: EC50.
The mark [10] stands for this setting: α9α10x chimeric receptor, mean ± SEM.

Sequence of chicken α9–rat α10 hybrid receptor (Cα9-Rα10) (Q9PTS8 28-484): as the sequence (Q9PTS8 28-484) above
Sequence of chicken α9–rat α10 hybrid receptor (Cα9-Rα10) (Q9JLB5 25-447): as the sequence (Q9JLB5 25-447) above
Sequence of rat α9–chicken α10 hybrid receptor (Rα9-Cα10) (P43144 26-479): as the sequence (P43144 26-479, stated change not applied) above
Sequence of rat α9–chicken α10 hybrid receptor (Rα9-Cα10) (Q9I8C7 27-452): as the sequence (Q9I8C7 27-452) above
T1 sequence (P43144 26-479): as the sequence (P43144 26-479, stated change not applied) above
Sequence of rat α9α10W55T receptor (Rα9-Rα10W55T) (P43144 26-479): as the sequence (P43144 26-479, stated change not applied) above
Sequence of rat α9α10W55T receptor (Rα9-Rα10W55T) (Q9JLB5 25-447 W81T): as the sequence (Q9JLB5 25-447) above, with W57T counted along it

With `CC(=O)OCC[N+](C)(C)C` [ACh, acetylcholine], the EC50 in assay [1] was 12.9 ± 1.4 µM; in assay [2], 2.2 ± 0.7 µM; at Chicken α9α10 nAChR [4], ~10 µM; in [5] (Rα9-Cα10 hybrid), 11.6 ± 2.9 µM; at Chicken α9α10 nAChR [6], 13.1 ± 2.6 µM. Further, the results for the “Imax (maximal ACh response)” value (on Rat α9 homomeric nAChR (homomeric rat α9); in assay [3] (rat α9 co-expressed with α10x)) were 14 ± 2 nA and 269 ± 103 nA, respectively.
Turning to `C[N+](C)(C)CCOC(N)=O` [Carbachol, carbachol], the “Efficacy (maximal response as % of that elicited by 1 mM ACh)” value on Rat α9α10 nAChR is reported as 75.5 ± 5.2 (5) %; at Chicken α9α10 nAChR [6] (Chicken α9α10, mean ± SEM), 89.8 ± 7.0 (6) %. The EC50 at Rat α9α10 nAChR was 159 ± 31.5 µM; at Chicken α9α10 nAChR [6] (setting [9]) it was 150 ± 15 µM. The “Potency relative to ACh (times lower)” value on Rat α9α10 nAChR (rat α9α10, carbachol EC50 vs ACh) is ~12 times; on Chicken α9α10 nAChR [6] (chicken α9α10, carbachol EC50 vs ACh) it was ~12 times. Besides, the Emax on Rat α9α10 nAChR was 75 ± 5%; at Chicken α9α10 nAChR [6] (mean ± SEM), 89 ± 7%.
As to `C[N+](C)(C)CCO` [Choline, choline], the results for the “Efficacy (responses to 10 mM choline as % of those elicited by 1 mM ACh)” value in [7] and in [7] (listed as choline) were 7.4 ± 1.9 (5) % and 7 ± 2%, respectively. Further, the EC50 was 280 ± 20 µM in [1]; 23.2 ± 8.3 µM in assay [2]; 188 ± 40 µM on Rat α9 homomeric nAChR (Rat α9, −70 mV, BAPTA-AM treated oocytes, mean ± SEM); 160 ± 7.6 µM in [3] (setting [10]); 333 ± 66.2 µM in assay [8] (Cα9-Rα10 hybrid); 148 ± 12.1 µM in [5] (Rα9-Cα10 hybrid). The EC50 on Rat α9α10 nAChR was 541 ± 62 µM; on Chicken α9α10 nAChR [6] (setting [9]), 200 ± 16 µM. Further, the Emax in [1] (read-out: Efficacy (maximal response as % of that elicited by 1 mM ACh), mean ± SEM) came to 73.7 ± 5.9%; in assay [2] (read-out: Efficacy (maximal response as % of maximal ACh response), mean ± SEM) it was 99.4 ± 9.5%; at Rat α9 homomeric nAChR (read-out: Efficacy (maximal response as % of that elicited by 1 mM ACh), Rat α9, mean ± SEM), 87 ± 6%; in assay [3] (read-out: Efficacy (maximal response as % of maximal ACh response), α9α10x chimeric receptor, mean ± SEM) it was 74 ± 1%; in assay [8] (read-out: Efficacy (maximal response as % of maximal ACh response), Cα9-Rα10 hybrid) it was 51 ± 6%; in assay [5] (read-out: Efficacy (maximal response as % of responses to 1 mM ACh), Rα9-Cα10 hybrid), 86 ± 2%. For the same compound, the Emax at Rat α9α10 nAChR worked out at 37 ± 3%; on Chicken α9α10 nAChR [6] (mean ± SEM), 88 ± 6.7%; in the assay with mouse outer hair cells, 50 ± 9%; with chicken short hair cells, 90 ± 6%. Also, the “Efficacy (maximal response as % of that elicited by 1 mM ACh)” value at Rat α9 homomeric nAChR (Rat α9, mean ± SEM) is recorded as 87.3 ± 6.0 (4) %; on Rat α9α10 nAChR, 37.5 ± 2.5 (9) %; on Rat α9α10 nAChR (listed as choline), 38 ± 3%. Also, the “Efficacy (maximal response as % of maximal ACh response)” value in assay [3] (setting [10]) is recorded as 74.3 ± 1.0 (5) %; in assay [8] (Cα9-Rα10 hybrid), 51.2 ± 6 (5) %. For the same compound, in assay [5] (Rα9-Cα10 hybrid), the “Efficacy (maximal response as % of responses to 1 mM ACh)” value is reported as 86.4 ± 2.1 (6) %.
Turning to `C[N+]1(C)CCN(c2ccccc2)CC1` [DMPP], the “Efficacy (maximal response as % of that elicited by 1 mM ACh)” value on Rat α9α10 nAChR is 0.6 ± 0.3 (6) %; on Chicken α9α10 nAChR [6] (Chicken α9α10, mean ± SEM), 32.6 ± 2.9 (5) %. The EC50 at Rat α9α10 nAChR was 21.5 ± 4 µM; at Chicken α9α10 nAChR [6] (setting [9]) it was 9.8 ± 0.5 µM.
Turning to `CN1CCC[C@H]1c1cccnc1` [Nicotine, nicotine], the “Agonist activity (currents elicited)” value at Rat α9α10 nAChR (oocytes expressing rat α9α10) and at Chicken α9α10 nAChR [6] (oocytes expressing chicken α9α10) was “did not elicit currents” throughout. The IC50 at Chicken α9α10 nAChR [6] was determined as 39.4 ± 3.4 µM.
